This is an account of results in paper PMC8744235 (Journal of Biomedical Science, 2022).

Values joined by “and” are separate entries in the source; they are usually repeats but may differ in a detail not shown here. Identical values can stand only once. Counter-ions that a name gives are not always drawn. Like-named read-outs stand apart in the source and are kept apart here.

Broadly, the half-life is the time needed for the level to fall by half in the phase considered. As usually defined, the IC50 is the point on the concentration scale where inhibition reaches its midpoint. In general, Km refers to the substrate concentration at which the rate is half of its maximum.

Data set [1] has as its system [^3H]VPA uptake in WT (hSOD1^WT) NSC-34 cell line. Briefly: Inhibition of [3H]VPA uptake by substrates/inhibitors/drugs, WT cell line. The note with it: for [^3H]VPA uptake (% of control): 10 s, 37 °C. Format: cell-based.
In data set [2] the test system is [^3H]VPA uptake in MT (hSOD1^G93A) NSC-34 cell line. Particulars: for [^3H]VPA uptake (% of control): 10 s, 37 °C.
For data set [3], the system named is NSC-34 wild-type (NSC-34/hSOD1^WT) cell line. Briefly: [3H]VPA cellular uptake and kinetic parameters, WT cell line. Type of data set: in vitro ADME. From the text:
(§1) To maintain the sodium-free environment in the ECF buffer, NaCl and NaHCO3 was replaced with […] and N-methyl-D-glucamine (NMG), respectively. […] Similarly, to observe the effect of pH, the ECF buffer was adjusted to pH 6.0-7.4 using HCl or NaOH following a previously described experimental procedure. […] For the Eadie-Hofstee plot, the saturable components were plotted by subtracting the non-saturable uptake from the total uptake rate.

Data set [4] deals with NSC-34 mutant-type (NSC34/hSOD1^G93A) cell line. Briefly: [3H]VPA cellular uptake and kinetic parameters, MT ALS cell line. Format: in vitro ADME.
Excerpt: as §1

For the next data set, the system named is NSC-34 WT cell line. Briefly: Cell viability (MTT) assay, glutamate- and H2O2-induced neurotoxicity, WT. Particulars: 24 h. How it is done: (§2) Then, an MTT [3‐(4,5‐[…]‐2‐yl)‐2,5‐diphenyltetrazoliumbromide] solution (5 mg/mL) was added and the cells were stored in the dark at 37 °C until the appearance of a purple precipitate (formazan). Then, DMSO was added and the cells were left for 15 min; afterwards, the absorbance was measured using an Infinite F200 PRO microplate reader (Tecan Trading AG, Männedorf, Switzerland) at […]. Images were captured using an EVOS XL Core Cell Imaging System (Life technologies, Thermo Fisher Scientific Korea Co., Ltd.).

A further data set concerns NSC-34 MT cell line. Briefly: Cell viability (MTT) assay, glutamate- and H2O2-induced neurotoxicity, MT. Particulars: 24 h. How it is done:
as §2

The conditions of data set [5]: in the body; cited from earlier work.
The next data set concerns FRTL-5 cells. The note with it: inhibition of GHB uptake by FRTL-5 cells; cited from earlier work.
Data set [6] deals with [^3H]VPA uptake in MT (hSOD1^G93A) NSC-34 cell line. Put plainly: cells.
For a further data set, the system named is colonic mucosa. More on the design: method as in PMID 32014250. The note with it: cited from earlier work.
The target in the next data set is SMCT1. Particulars: inhibition of uptake of SMCT1 substrate nicotinate, mouse colon cell lines; cited from earlier work.
Where [7] appears, read: 5–30 s, pH 6.0–7.4, sodium-free (NMG) buffer.
Where [8] appears, read: high-affinity site, unlabeled VPA 0–10 mM, 10 s, pH 7.4, 37 °C.
Setting [9] is: low-affinity site, 10 s, pH 7.4.
[10] abbreviates: VPA 2 mM added to glutamate (2 mM) and H2O2 (300 µM).
Setting [11] is: NSC-34, pH 6, read-out: IC50 for [^3H]VPA uptake.
The mark [12] stands for this setting: NSC-34, pH 7.4, read-out: IC50 for [^3H]VPA uptake.

`CC(=O)O` [Acetic acid, acetic acid]: the “[^3H]VPA uptake (% of control)” value in data set [1] (compound 1 mM, pH 6.0) is reported as 54.9 ± 6.7 % of control; in [1] (compound 10 mM, pH 6.0), 24.4 ± 3.0 % of control; in data set [2] (compound 1 mM, pH 6.0), 40.3 ± 5.0 % of control; in data set [2] (compound 10 mM, pH 6.0), 15.4 ± 1.4 % of control.
As for `CCCC(CCC)C(=O)O` [VPA, Valproic acid], the “dependence of [^3H]VPA uptake” value in data set [3] (setting [7]) is “time, pH, and sodium dependent”; in [4] (setting [7]) it was “time, pH, and sodium dependent”. Further, the Vmax1 worked out at 0.0083 ± 0.0044 nmol/mg protein/10 s in [3] (high-affinity site, pH 7.4) and 0.0232 ± 0.0007 nmol/mg protein/10 s in [4] (high-affinity site, pH 7.4). For the same compound, the results for the Km1 in data set [3] (setting [8]) and in data set [4] (setting [8]) were 37.8 ± 3.0 µM and 19.1 ± 0.7 µM, respectively. In addition, the Km2 was 4.59 ± 0.62 mM and 4.588 ± 0.620 mM in [3] (setting [9]); 1.14 ± 0.14 mM and 1.144 ± 0.143 mM in [4] (setting [9]). Further, the Vmax2 is 1.86 ± 0.24 nmol/mg protein/10 s and 1.864 ± 0.244 nmol/mg protein/10 s in [3] (low-affinity site, pH 7.4); 0.231 ± 0.015 nmol/mg protein/10 s in data set [4] (low-affinity site, pH 7.4). The “[^3H]VPA uptake (% of control)” value in [1] (compound 1 mM, pH 6.0) was 78.3 ± 4.5 % of control; in data set [1] (compound 10 mM, pH 6.0), 35.9 ± 5.2 % of control; in data set [2] (compound 1 mM, pH 6.0), 78.4 ± 1.6 % of control; in data set [2] (compound 10 mM, pH 6.0) it was 37.4 ± 4.2 % of control. Besides, the “neuroprotective effect on cell viability (MTT)” value with NSC-34 WT cell line (setting [10]) and in the data set with NSC-34 MT cell line (setting [10]) was “restored the viability” each time. In data set [5], the half-life is 9 to 16 h.
Take `C[C@H](O)C(=O)O` [L-lactate]: the half-inhibitory concentration (IC50) entry in the data set on FRTL-5 cells is recorded as “in the micromolar range”.
Turning to `N#CC(=Cc1ccc(O)cc1)C(=O)O` [CHC, α-cyano-4-hydroxycinnamate], the “[^3H]VPA uptake (% of control)” value in data set [1] (compound 10 mM, pH 6.0) is 67.7 ± 9.0 % of control; in [2] (compound 10 mM, pH 6.0), 74.6 ± 7.1 % of control.
The like results for `O=C(O)CCCc1ccccc1` [PBA, 4-phenylbutyric acid] were, in that order, 43.1 ± 2.2 % of control and 56.6 ± 3.0 % of control.
With `CC(C(=O)O)c1cccc(C(=O)c2ccccc2)c1` (centres unmarked) [ketoprofen], the IC50 entry in the data set with FRTL-5 cells was “in the micromolar range”.
With `N[C@@H](CCC(=O)O)C(=O)O` [glutamate], the “effect of neurotoxic stimulus on cell viability (MTT)” value with NSC-34 WT cell line (glutamate 2 mM or H2O2 300 µM) and with NSC-34 MT cell line (glutamate 2 mM or H2O2 300 µM) was “significantly decreased the viability” in each case.
Regarding `C[C@]12CC[C@@H]3c4ccc(OS(=O)(=O)O)cc4CC[C@H]3[C@@H]1CCC2=O` [Estrone − 3 sulfate, estrone 3-sulfate], the “[^3H]VPA uptake (% of control)” value in data set [1] (compound 10 mM, pH 6.0) is given as 60.6 ± 8.4 % of control; in data set [2] (compound 10 mM, pH 6.0) it was 58.2 ± 8.5 % of control.
Regarding `CC(C)Cc1ccc(C(C)C(=O)O)cc1` (centres unmarked) [Ibuprofen], the “[^3H]VPA uptake (% of control)” value in data set [1] (compound 1 mM, pH 6.0) is 64.3 ± 3.6 % of control; in data set [1] (compound 10 mM, pH 6.0), 22.3 ± 1.5 % of control; in [2] (compound 1 mM, pH 6.0), 61.9 ± 7.5 % of control; in data set [2] (compound 10 mM, pH 6.0) it was 33.5 ± 1.0 % of control. The IC50 in data set [6] (setting [11]) is 6.65 mM; in [6] (setting [12]), 36 mM; in the data set on FRTL-5 cells, “in the micromolar range”.
Regarding `Nc1ccc(O)c(C(=O)O)c1` [5-aminosalicylic acid], the Km with colonic mucosa is 2400 µM. The Ki/IC50 on SMCT1 is recorded as 2.8 mM.
As for `O=S(=O)(O)c1cc(N=C=S)ccc1C=Cc1ccc(N=C=S)cc1S(=O)(=O)O` [DIDS, 4,4′-diisothiocyano-2,2′-stilbenedisulfonic acid], the “depletion in VPA transport” value in data set [1] (1 mM) and in [2] (1 mM) was “approximately 40%” throughout. Also, the “[^3H]VPA uptake (% of control)” value is listed as 54.8 ± 4.3 % of control in [1] (compound 1 mM, pH 6.0) and 58.8 ± 4.9 % of control in data set [2] (compound 1 mM, pH 6.0).
Take `O=C(O)CC(O)(CC(=O)O)C(=O)O` [Citric acid, citric acid]: the “[^3H]VPA uptake (% of control)” value in [1] (compound 10 mM, pH 6.0) was 113 ± 3 % of control; in data set [2] (compound 10 mM, pH 6.0), 125 ± 13 % of control.
With `CCCN(CCC)S(=O)(=O)c1ccc(C(=O)O)cc1` [probenecid], in the data set on FRTL-5 cells, the 50% inhibitory concentration (IC50) result is on record as “in the micromolar range”.
`NS(=O)(=O)c1cc(C(=O)O)c(NCc2ccco2)cc1Cl` [Furosemide, furosemide]: the “[^3H]VPA uptake (% of control)” value is reported as 61.7 ± 6.3 % of control in [1] (compound 1 mM, pH 6.0); 77.5 ± 4.9 % of control in data set [1] (compound 5 mM, acidic pH); 61.7 ± 2.2 % of control in data set [2] (compound 1 mM, pH 6.0); 82.3 ± 7.5 % of control in [2] (compound 5 mM, acidic pH).
Take `O=C(O)c1ccccc1O` [Salicylic acid]: the “[^3H]VPA uptake (% of control)” value in data set [1] (compound 1 mM, pH 6.0) is listed as 64.9 ± 2.0 % of control; in [1] (compound 10 mM, pH 6.0) it was 17.9 ± 1.5 % of control; in data set [2] (compound 1 mM, pH 6.0), 78.8 ± 8.6 % of control; in data set [2] (compound 10 mM, pH 6.0), 31.9 ± 1.6 % of control. For the same compound, the IC50 in data set [6] (setting [11]) is 7.36 mM.
Regarding `Nc1ccc(C(=O)NCC(=O)O)cc1` [PAH, para-aminohippuric acid], the “[^3H]VPA uptake (% of control)” value in [1] (compound 1 mM, pH 6.0) is given as 71.0 ± 5.5 % of control; in data set [1] (compound 10 mM, pH 6.0) it was 75.8 ± 2.3 % of control; in data set [2] (compound 1 mM, pH 6.0) it was 58.7 ± 2.9 % of control; in data set [2] (compound 10 mM, pH 6.0), 63.5 ± 5.5 % of control.
`CC1=NN(c2ccccc2)C(=O)C1` [Edaravone, edaravone]: the “[^3H]VPA uptake (% of control)” value in [1] (compound 1 mM, pH 6.0) is reported as 80.3 ± 6.0 % of control; in [1] (compound 10 mM, pH 6.0), 67.3 ± 7.6 % of control; in data set [2] (compound 1 mM, pH 6.0), 81.0 ± 5.4 % of control; in data set [2] (compound 10 mM, pH 6.0), 68.6 ± 6.3 % of control. Moreover, in data set [6] (setting [12]), the IC50 stood at 28.9 mM.
